Results published in patent US12642803B2, “Pharmaceutical aqueous formulation comprising 1-(4-{[4-(dimethylamino)piperidin-1-yl]carbonyl}phenyl)-3-[4-(4,6-dimorpholin-4-yl-1,3,5-triazin-2-yl)phenyljurea” (PFIZER INC., priority 2017, dated 2026).

Legend:
[1] = only with lactic acid and orthophosphoric acid, of ten acids tested; WO2016/097949; cited from earlier work
[2] = Visual analysis (European Pharmacopoeia Method 2.9.20) and OPM analysis for crystallites or particles (clear solution); type: physicochemical; conditions: for Solution concentration at which the necessary clear solutions are not obtained, or are not obtained consistently: pH required for intravenous administration
Text: A “clear solution” is defined herein as a visually clear solution, which may bear a solution opalescence, that is essentially free from any visible particulates that can be observed on a visual inspection. Generally, if any particulate matter is observed, the formulation is not suitable for intravenous administration and should not be utilised as occlusion of blood vessels may occur. Accordingly, in view of the qualitative nature of the visual test, the term “essentially free from any visible particulates” is usually applied when no visible particulate matter is observed.
The visual inspection can be conducted in accordance with the method defined in European Pharmacopoeia Method 2.9.20 entitled “Particulate contamination: visible particles”. This method determines particulate contamination of injections and infusions by extraneous, mobile, undissolved particles, other than gas bubbles, that may be present in the solutions. […]
A sample of the formulation was analysed in accordance with the visual method defined in European Pharmacopoeia Method 2.9.20 (using a Verivide (trade mark) light cabinet and a light meter reading of 3250 lux against a matt black panel and a white panel) to determine if crystallites or particles were present. […]
A sample of the formulation was placed on a clean glass microscopy slide and covered with a glass cover slip. It was then analysed by OPM using both non-polarised and cross-polarised light under a Nikon LV 100POL (trade mark) microscope with a 10× magnification lens and a 10× magnification eyepiece to determine if crystallites or particles were present. The image was recorded using a DFK 23UP031 TIS USB 3.0 CMOS (trade mark) Colour Industrial Camera 5MP 1/2,5″ and image capture software. […]
These Examples were analysed by the visual method defined in European Pharmacopoeia Method 2.9.20 and the OPM method both as described in Example 1.
The Examples shown in the following Table were analysed by the visual method defined in European Pharmacopoeia Method 2.9.20 and the OPM method both as described in Example 1. […]

[3] = Water solubility of the free base; type: physicochemical; conditions: for an aqueous solution formulation for intravenous or parenteral administration at the therapeutic dosage levels required
Description: (§1) 1-(4-{[4-(Dimethylamino)piperidin-1-yl]carbonyl}phenyl)-3-[4-(4,6-dimorpholin-4-yl-1,3,5-triazin-2-yl)phenyl]urea may be prepared in crystalline form and is chemically and physically stable at 25° C. and 60% Relative Humidity (RH) for up to 3 years in this form.

[4] = Chemical and physical storage stability of the crystalline free base; type: physicochemical; conditions: crystalline form, 25° C. and 60% Relative Humidity (RH)
Description: as §1

- Solution concentration at which the necessary clear solutions are not obtained, or are not obtained consistently ([2]; formulations comprising ethanesulphonic acid): ≥ 35 mg/mL
- Solution concentration at which the necessary clear solutions are not obtained, or are not obtained consistently ([2]; formulations comprising methanesulphonic acid): ≥ 35 mg/mL
- Solution concentration achieved as clear, essentially particle-free solution ([2]; use of methanesulphonic acid and ethanesulphonic acid, free base concentration): up to 30 mg/ml
- Water solubility [3]: insufficiently water soluble
- Time for which chemically and physically stable [4]: up to 3 years
Compound: CN(C)C1CCN(C(=O)c2ccc(NC(=O)Nc3ccc(-c4nc(N5CCOCC5)nc(N5CCOCC5)n4)cc3)cc2)CC1 [1-(4-{[4-(Dimethylamino)piperidin-1-yl]carbonyl}phenyl)-3-[4-(4,6-dimorpholin-4-yl-1,3,5-triazin-2-yl)phenyl]urea]
- Concentration achieved as a clear solution [1]: ≥ 3000 µg/mL
